Results: the supplement of paper PMC10307832

Compound: C1=CC2=NC=CN=C2C=C1/C=C/3\C(=O)NC(=O)S3 + C[C@@H](Oc1cc(-c2cnn(C3CCNCC3)c2)cnc1N)c1c(Cl)ccc(F)c1Cl [Crizotinib] (partner 1 µM)
Assay: relative viability (nuclei count vs DMSO), 5 days (fraction); higher = more cells survive
Details: first compound 2 µM
Summary of the method: (§1)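 For relative viability, nuclei counts in treated wells were divided by those in vehicle wells. Lung cancer cell lines had been pin-tool dosed in 1536-well plates the day after seeding and cultured for 5 days, then fixed and stained in one step (final 0.05% Triton X-100, 1% formaldehyde, 1 ug/ml Hoechst) and imaged at 4×. Doses were one drug alone or a fixed anchor-drug dose plus five library-drug doses (not always all listed) in √10 steps, and values are duplicate-plate medians.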

Cell Line	relative viability
NCI-H441	0.644
NCI-H1299	0.986

Compound: C1=CC2=NC=CN=C2C=C1/C=C/3\C(=O)NC(=O)S3 + C[C@]1(O)C[C@@H](c2nc(-c3ccc4ccc(-c5ccccc5)nc4c3)c3c(N)nccn32)C1 [Linsitinib] (partner 1 µM)
Assay: as above
Details: first compound 0.02 µM
Summary of the method: as §1

Cell Line	relative viability
NCI-H727	0.341
EBC-1	0.88
NCI-H1703	1.04
NCI-H1993	0.712
SW 1573	0.78
NCI-H838	0.955
LCLC-103H	1.05
NCI-H520	0.931
NCI-H2126	0.682
EMC-BAC-2	0.765
NCI-H2085	0.807
Calu-6	0.946
HCC-366	0.636
NCI-H1666	0.789
NCI-H596	1.01
LK-2	0.68

Cell Line	relative viability
NCI-H2087	1.07
SK-MES-1	1.04
H3255	0.81
COR-L23	0.874
COR-L 105	0.897
IA-LM	0.516
LOU-NH91	0.982
NCI-H2405	0.96
HOP-62	1.04
HCC-44	0.691
A549	0.648
NCI-H441	0.473
NCI-H1395	1.37
NCI-H1299	0.841
NCI-H1793	0.785

Same assay, conditions: first compound 0.06325 µM

Cell Line	relative viability
NCI-H727	0.223
EBC-1	1.22
NCI-H1703	1.13
NCI-H1993	0.797
SW 1573	0.825
NCI-H838	1.03
LCLC-103H	0.799
NCI-H520	1.15
NCI-H2126	0.773
EMC-BAC-2	0.906
NCI-H2085	0.886
Calu-6	1.13
HCC-366	0.832
NCI-H1666	0.848
NCI-H596	0.994
LK-2	0.523

Cell Line	relative viability
NCI-H2087	0.911
SK-MES-1	1.25
H3255	0.968
COR-L23	0.89
COR-L 105	0.949
IA-LM	0.729
LOU-NH91	1.01
NCI-H2405	1.08
HOP-62	0.982
HCC-44	0.628
A549	0.682
NCI-H441	0.399
NCI-H1395	1.28
NCI-H1299	1.1
NCI-H1793	0.99

Same assay, conditions: first compound 0.2 µM

Cell Line	relative viability
NCI-H727	0.33
EBC-1	0.922
NCI-H1703	1.1
NCI-H1993	0.751
SW 1573	0.943
NCI-H838	0.958
LCLC-103H	1.03
NCI-H520	1.11
NCI-H2126	0.715
EMC-BAC-2	0.822
NCI-H2085	0.826
Calu-6	1.05
HCC-366	0.734
NCI-H1666	0.807
NCI-H596	1.11
LK-2	0.69

Cell Line	relative viability
NCI-H2087	0.996
SK-MES-1	1.09
H3255	0.967
COR-L23	0.978
COR-L 105	0.947
IA-LM	0.607
LOU-NH91	0.928
NCI-H2405	1.03
HOP-62	1.1
HCC-44	0.675
A549	0.627
NCI-H441	0.653
NCI-H1395	1.25
NCI-H1299	0.985
NCI-H1793	0.747

Same assay, conditions: first compound 0.6325 µM

Cell Line	relative viability
NCI-H727	0.403
EBC-1	0.953
NCI-H1703	0.696
NCI-H1993	0.795
SW 1573	0.847
NCI-H838	0.913
LCLC-103H	0.976
NCI-H520	0.969
NCI-H2126	0.688
EMC-BAC-2	0.808
NCI-H2085	0.806
Calu-6	0.899
HCC-366	0.501
NCI-H1666	0.843
NCI-H596	0.975
LK-2	0.644

Cell Line	relative viability
NCI-H2087	0.937
SK-MES-1	0.95
H3255	0.897
COR-L23	0.861
COR-L 105	0.851
IA-LM	0.606
LOU-NH91	0.954
NCI-H2405	0.959
HOP-62	1.01
HCC-44	0.607
A549	0.546
NCI-H441	0.57
NCI-H1395	0.939
NCI-H1299	0.919
NCI-H1793	0.919

Same assay, conditions: first compound 2 µM

Cell Line	relative viability
NCI-H727	0.252
EBC-1	0.925
NCI-H1703	0.741
NCI-H1993	0.713
SW 1573	0.714
NCI-H838	1
LCLC-103H	1.08
NCI-H520	1.03
NCI-H2126	0.685
EMC-BAC-2	0.869
NCI-H2085	0.969
Calu-6	0.876
HCC-366	0.638
NCI-H1666	0.911
NCI-H596	1.07
LK-2	0.516

Cell Line	relative viability
NCI-H2087	0.954
SK-MES-1	1.04
H3255	0.96
COR-L23	0.951
COR-L 105	1.03
IA-LM	0.694
LOU-NH91	0.97
NCI-H2405	0.915
HOP-62	1.06
HCC-44	0.674
A549	0.6
NCI-H441	0.508
NCI-H1395	1.14
NCI-H1299	0.927
NCI-H1793	0.679

Compound: CCN1CCN(c2ccc(Nc3cc(N(C)C(=O)Nc4c(Cl)c(OC)cc(OC)c4Cl)ncn3)cc2)CC1 [BGJ398] + COc1cccc2cc(-c3nc([C@H]4CC[C@H](C(=O)O)CC4)n4ncnc(N)c34)[nH]c12 [OSI-027] (partner 0.5 µM)
Assay: as above
Details: first compound 0.01 µM
Summary of the method: as §1

Cell Line	relative viability
NCI-H522	0.686
